According to paper PMC6424956, “A MALDI-TOF-based Method for Studying the Transport of BBB Shuttles—Enhancing Sensitivity and Versatility of Cell-Based In Vitro Transport Models” (Scientific Reports, 2019):
Like-named read-outs stand apart in the source and are kept apart here. Numbered stars: 1 amine (or outer) side, 2 acyl side, 3 side chain; on linkers, the order of the positions; unused ones are H or OH. Square brackets hold non-standard residues; d marks the D form. Peptide text beside a SMILES is read from it. X1 = O=C([C@H]1[C@@H](c2ccccc2)CCN1[*:1])[*:2]; X2 = O=C([C@@H]1[C@H](c2ccccc2)CCN1[*:1])[*:2]; dAla(4-thiazolyl) = N[C@H](Cc1cscn1)C(=O)O; Tic(7-OH) = O=C(O)[C@@H]1Cc2ccc(O)cc2CN1; Phe(4-NH2) = Nc1ccc(C[C@H](N)C(=O)O)cc1; Phe(4-F) = N[C@@H](Cc1ccc(F)cc1)C(=O)O; hCha = N[C@@H](CCC1CCCCC1)C(=O)O

How the values were obtained:
[1] = test system: in vitro bovine BBB cell-based model; experiment: In vitro bovine BBB cell-based model transport assay; settings: for Transport (%) MALDI-TOF MS / Transport (%) RP-HPLC-PDA: 200 μM peptide in Ringer-HEPES, 2 h, 37 °C, mean ± SD, n = 3; for Transport (%) MALDI-TOF MS: quantified by MALDI-TOF MS with heavy internal standard; for Transport (%) RP-HPLC-PDA: quantified by RP-HPLC-PDA (220 nm), some values approximate (below LOQ); for Increase in transport compared to the parent peptide (1 L): bovine BBB model, MALDI-TOF MS quantification, transport normalized by parent peptide 1 L
Procedure: (§1) Peptides were evaluated through an in vitro bovine BBB cell-based model (Fig. 2a). Transport (T) and permeability (Papp) for all peptides were quantified by RP-HPLC-PDA and by MALDI-TOF MS (Fig. 2). The former method determined transport by applying the ratio between the peak areas integrated in the chromatograms from the acceptor and donor wells, further corrected by the volumes injected and the volumes contained in each well (see Eq. 1). The latter entails the spiking of the heavy version of the peptide as internal standard into an aliquot of the light peptide (Fig. 2b). The MS intensity for light/heavy ratios for acceptor and donor wells is representative of the relative amount of peptide in each well when corrected by their volume (detailed in Eq. 2).1 T=QAI(t)/QDI(t0)×VDI/VAI×VAW/VDW×100(%) where QAI(t) and QDI(t0) account for the integrated area in the HPLC chromatograms of acceptor (at time t = 2 h) and donor (at time t0 = 0) wells, respectively; VDI and VAI are the injected volumes from donor and acceptor wells, respectively; and VAW and VDW are the volumes in each acceptor and donor well, respectively.2 T=QALight(t)/Q^Heavy/QDLight(t0)/(R×Q^Heavy)×VAW/VDW×100(%) QALight(t)/Q^Heavy accounts for the relative amount of the light peptide in the acceptor well (at time t) compared with a prepared dilution of the heavy isomer (at 2 μM). QDLight(t0)/(R×Q^Heavy) determines the relative amount of light peptide in the donor well (at time t = 0) compared with a prepared dilution of the heavy isomer (at 200 μM; i.e. in our case R = 100).
(§2) In general, transport (see Eq. 3) can be described by the total amount of peptide in the acceptor well at time t, QA(t) , divided by the initial amount in the donor well, QD(t0) , while apparent permeability (Papp), widely used in the literature, normalizes transport by the transwell area, volume in donor well and time (see Eq. 4). […] In these cases, an approximate value was determined.
(§3) This assay was an adapted model[5] of the method previously published by Gaillard and de Boer[49]. Before performing the assay, TEER was measured in all transwells (TEER > 100 Ω·cm^2). […] The apical compartment was filled with 200 μL of the solution containing the peptide, and 800 µL of Ringer-HEPES was poured into the basal well. Three replicates of each peptide were assayed. The plate was left for 2 h in the incubator at 37 °C. Finally, the samples were collected and analyzed or frozen until analysis. LY fluorescence was measured in a 96-well plate with a Fluoroskan Ascent Microplate Fluorometer (Thermo Fisher Scientific). Two parameters were determined, namely transport (T (%)) and apparent permeability (Papp(cm/s)). RP-HPLC-PDA (220 nm) and MALDI-TOF MS were used to determine the amounts of peptide in each sample.
(§4) Transport was calculated using Eq. 2. […] Peak-picking and determination of peak area ratios was performed using Data Explorer version 4.5 (Applied Biosystems).

[2] = as above; settings: bovine, 200 μM peptide in Ringer-HEPES, 2 h, 37 °C, mean ± SD, n = 3
Procedure: as §1, §2, §3, §4

[3] = Parallel artificial membrane permeability assay (PAMPA); type: in vitro ADME; settings: pig, porcine brain polar lipid extract
Procedure: Passive diffusion was ruled out as the mechanism responsible for transport when the peptides (1 L, 6D, 7 − D and 8D) were assayed by PAMPA, an in vitro physico-chemical model where the transport by passive diffusion of compounds is evaluated through a membrane containing the lipid composition of interest (in our case, a porcine brain polar lipid extract (BPLE) to mimic the BBB lipid barrier). […] Note that when these values fall below 2.0 × 10^−6 cm/s compounds are considered to be poorly transported by passive diffusion.
The PAMPA assay was used to exclude passive diffusion capacity across the BBB. The standard parameter that quantifies transport independently of time and concentrations is effective permeability, Pe=−218.3/tLog(1−2CA(t)/CD(t0))×10^−6cm/s; where t is the running time (4 h), CA (t) is the concentration of the compound in the acceptor well at time t, and CD (t0) is the compound concentration in the donor well before running the PAMPA assay (t0 = 0 h). […] The protocol followed was the same as that previously used by Arranz-Gibert et al.[1]. Permeability is considered excellent with values >4.0 × 10^−6) cm/s, uncertain between 2.0 × 10^−6 and 4.0 × 10^−6 cm/s, and poor with values below 2.0 × 10^−6) cm/s[41].

[4] = Peptide stability in human serum; type: in vitro ADME; settings: for Protease resistance (in human serum): result in words
Procedure: Peptides were dissolved in 1 mL of HBSS buffer/human serum (from human male AB plasma; Sigma-Aldrich) 10:90 (v/v) at a final concentration of 200 µM and incubated at 37 °C for 24 h. Aliquots of 50 µL were extracted at a range of incubation times and treated with 200 µL of cold CH3OH (4 °C) to precipitate serum proteins. After 30 min, samples were centrifuged at 13,000 g and 4 °C for 30 min. Supernatants were analyzed by RP-HPLC-PDA and MALDI-TOF MS, using similar procedures as for the quantification of the in vitro cell-based BBB model.

[5] = test system: in vitro human model of the BBB (brain-like endothelial cells from human cord blood-derived hematopoietic stem cells co-cultured with bovine pericytes); experiment: In vitro human BBB cell-based model transport assay
Procedure: The aforementioned peptides were assayed as in the other BBB model using either Ringer-HEPES buffer (the one commonly used in these assays) or supplemented ECM medium. The use of medium in this assay allows (1) the extension of the incubation time and (2) the use of more similar conditions to those found physiologically.
Endothelial cells and pericytes were defrosted in gelatin-coated Petri dishes (Corning). Pericytes and endothelial cells were cultured in DMEM pH 6.8 or in supplemented endothelial cell growth medium (Sciencells), respectively. After 48 h, pericytes (50,000 cells/well) and endothelial cells (80,000 cells/well) were seeded in gelatin-coated 12-well plates or in Matrigel-coated 12-well Transwell inserts (Corning), respectively. Medium was changed every 2–3 days and assays were performed 7–8 days after seeding. […] LY fluorescence was measured in a 96-well plate with a Fluoroskan Ascent Microplate Fluorometer (Thermo Fisher Scientific). Compounds were dissolved in Ringer-HEPES at a concentration of 200 µM. Then, 500 µL of the compound and 1,500 µL of Ringer-HEPES alone were introduced in the apical or in the basolateral compartments, respectively. The plates were set on at 37 °C for 2 h. The solutions from both compartments were then recovered and quantified by HPLC and identified by MALDI-TOF.

[6] = Papp MALDI-TOF MS, quantified by MALDI-TOF MS with heavy internal standard
[7] = Papp RP-HPLC-PDA, quantified by RP-HPLC-PDA (220 nm)
[8] = 4 h, n = 3, values are Pe · 10^6, read-out: Pe · 10^6 (effective permeability)
[9] = read-out: Permeability values (PAMPA), bound in the text

Transport (%) MALDI-TOF MS [1] [%] | Transport (%) RP-HPLC-PDA [1] [%] | Papp at 2 h, 200 μM [2, 6] [×10⁻⁶ cm/s] | Papp at 2 h, 200 μM [2, 7] [×10⁻⁶ cm/s] | Compound | Increase in transport compared to the parent peptide (1 L) [1] | Papp at 4 h [3, 8] [×10⁻⁶ cm/s] | Papp at 4 h [3, 9] [×10⁻⁶ cm/s] | Protease resistance (in human serum) [4] | Papp of Lucifer yellow (control) ([1]; 20 μM Lucifer yellow lithium salt as control in Ringer-HEPES) | Papp of Lucifer Yellow (internal control) ([5]; 50 µM Lucifer Yellow as internal control) | half-life at 200 µM ([4]; male, HBSS buffer/human serum 10:90 (v/v), 200 µM, 37 °C, 24 h, non-linear regression, read-out: t1/2 in human serum (converted)) [min] | Transport relative to the parent peptide 1 L (HAI), buffer ([5]; human BBB model, Ringer-HEPES buffer) | Transport relative to the parent peptide 1 L (HAI), medium ([5]; human BBB model, supplemented ECM medium)
7 ± 2 | 6.8 ± 1.2 | 5.7 ± 1.9 | 5.7 ± 1 | CC[C@@H](C)[C@@H](NC(=O)[C@@H](Cc1ccc(O)cc1)NC(=O)[C@@H]1[C@H](c2ccccc2)CCN1C(=O)[C@@H](CCCNC(=N)N)NC(=O)[C@@H](Cc1c[nH]cn1)NC(C)=O)C(=O)N[C@H](C)C(=O)N[C@H](Cc1c[nH]cn1)C(N)=O [7+D, Ac-hrxyiah-NH2] (Ac-[dH][dR][X2][dY][dI][dA][dH]-NH2) | two-fold |  |  |  |  |  |  |  | 
3.4 ± 0.7 | 3.9 ± 0.9 | 2.8 ± 0.6 | 3.3 ± 0.7 | CC(=O)N[C@@H](Cc1c[nH]cn1)C(=O)N[C@@H](C)C(=O)N[C@@H](CCC1CCCCC1)C(=O)N[C@@H](Cc1ccc(O)cc1)C(=O)N1CCC[C@H]1C(=O)N[C@@H](CCCNC(=N)N)C(=O)N[C@@H](Cc1c[nH]cn1)C(N)=O [Peptide 2L, Ac-HAxYPRH-NH2] (Ac-HA[hCha]YPRH-NH2) |  |  |  |  |  |  |  |  | 
2.1 ± 0.5 | 2.0 ± 0.9 | 1.8 ± 0.4 | 1.6 ± 0.8 | CC[C@H](C)[C@H](NC(=O)[C@H](C)NC(=O)[C@H](Cc1c[nH]cn1)NC(C)=O)C(=O)N[C@@H](Cc1ccc(N)cc1)C(=O)N1CCC[C@H]1C(=O)N[C@@H](CCCNC(=N)N)C(=O)N[C@@H](Cc1c[nH]cn1)C(N)=O [Peptide 4L, Ac-HAIxPRH-NH2] (Ac-HAI[Phe(4-NH2)]PRH-NH2) |  |  |  |  |  |  |  |  | 
2.5 ± 1.2 | 2.0 ± 0.8 | 2.1 ± 1 | 1.7 ± 0.6 | CC[C@H](C)[C@H](NC(=O)[C@H](C)NC(=O)[C@H](Cc1c[nH]cn1)NC(C)=O)C(=O)N1Cc2cc(O)ccc2C[C@H]1C(=O)N1CCC[C@H]1C(=O)N[C@@H](CCCNC(=N)N)C(=O)N[C@@H](Cc1c[nH]cn1)C(N)=O [Peptide 3L, Ac-HAIxPRH-NH2] (Ac-HAI[Tic(7-OH)]PRH-NH2) |  |  |  |  |  |  |  |  | 
2.9 ± 1.2 | 4.4 ± 0.5 | 2.4 ± 1 | 3.7 ± 0.4 | CC[C@@H](C)[C@@H](NC(=O)[C@@H](Cc1ccc(O)cc1)NC(=O)[C@H]1CCCN1C(=O)[C@@H](CCCNC(=N)N)NC(=O)[C@@H](Cc1cscn1)NC(C)=O)C(=O)N[C@H](C)C(=O)N[C@H](Cc1c[nH]cn1)C(N)=O [Peptide 9D, Ac-xrpyiah-NH2] (Ac-[dAla(4-thiazolyl)][dR][dP][dY][dI][dA][dH]-NH2) |  |  |  |  |  |  |  |  | 

Second part, the compound before the results:

Compound | Transport (%) MALDI-TOF MS [1] [%] | Transport (%) RP-HPLC-PDA [1] [%] | Papp at 2 h, 200 μM [2, 6] [×10⁻⁶ cm/s] | Papp at 2 h, 200 μM [2, 7] [×10⁻⁶ cm/s] | Increase in transport compared to the parent peptide (1 L) [1] | Papp at 4 h [3, 8] [×10⁻⁶ cm/s] | Papp at 4 h [3, 9] [×10⁻⁶ cm/s] | Protease resistance (in human serum) [4] | Papp of Lucifer yellow (control) ([1]; 20 μM Lucifer yellow lithium salt as control in Ringer-HEPES) | Papp of Lucifer Yellow (internal control) ([5]; 50 µM Lucifer Yellow as internal control) | half-life at 200 µM ([4]; male, HBSS buffer/human serum 10:90 (v/v), 200 µM, 37 °C, 24 h, non-linear regression, read-out: t1/2 in human serum (converted)) [min] | Transport relative to the parent peptide 1 L (HAI), buffer ([5]; human BBB model, Ringer-HEPES buffer) | Transport relative to the parent peptide 1 L (HAI), medium ([5]; human BBB model, supplemented ECM medium)
CC[C@@H](C)[C@@H](NC(=O)[C@@H](Cc1ccc(O)cc1)NC(=O)[C@H]1CCCCN1C(=O)[C@@H](CCCNC(=N)N)NC(=O)[C@@H](Cc1c[nH]cn1)NC(C)=O)C(=O)N[C@H](C)C(=O)N[C@H](Cc1c[nH]cn1)C(N)=O [Peptide 8D, Ac-hrxyiah-NH2] | 7.5 ± 1.0 | 7.2 ± 0.9 | 6.3 ± 0.8 | 6.1 ± 0.8 | two-fold | 0.34 | < 0.4 | high resistance to protease degradation |  |  |  |  | 
CC[C@@H](C)[C@@H](NC(=O)[C@@H](Cc1ccc(O)cc1)NC(=O)[C@H]1CCCN1C(=O)[C@@H](CCCNC(=N)N)NC(=O)[C@@H](Cc1c[nH]cn1)NC(C)=O)C(=O)N[C@H](C)C(=O)N[C@H](Cc1c[nH]cn1)C(N)=O [Peptide 6D, Ac-hrpyiah-NH2] | 3.1 ± 0.9 | 5.3 ± 1.8 | 2.6 ± 0.7 | 4.5 ± 1.5 |  | 0.34 | < 0.4 |  |  |  |  |  | 
Lucifer yellow (LY) lithium salt [reference compound] |  |  |  |  |  |  |  |  | < 17 ·10^−6 cm/s | < 15 ·10^−6 cm/s |  |  | 
CC[C@H](C)[C@H](NC(=O)[C@H](C)NC(=O)[C@H](Cc1c[nH]cn1)NC(C)=O)C(=O)N[C@@H](Cc1ccc(O)cc1)C(=O)N1CCC[C@H]1C(=O)N[C@@H](CCCNC(=N)N)C(=O)N[C@@H](Cc1c[nH]cn1)C(N)=O [Peptide 1L, Ac-HAIYPRH-NH2] | 3.8 ± 1.4 | 2.9 ± 1.4 | 3.2 ± 1.2 | 2.5 ± 1.1 |  | 0.18 | < 0.4 |  |  |  | 198 |  | 
CC[C@H](C)[C@H](NC(=O)[C@H](C)NC(=O)[C@H](Cc1c[nH]cn1)NC(C)=O)C(=O)N[C@@H](Cc1ccc(F)cc1)C(=O)N1CCC[C@H]1C(=O)N[C@@H](CCCNC(=N)N)C(=O)N[C@@H](Cc1c[nH]cn1)C(N)=O [Peptide 5L, Ac-HAIxPRH-NH2] (Ac-HAI[Phe(4-F)]PRH-NH2) | 3.1 ± 1.6 | 3.4 ± 1.6 | 2.6 ± 1.3 | 2.9 ± 1.3 |  |  |  |  |  |  |  |  | 
CC[C@@H](C)[C@@H](NC(=O)[C@@H](Cc1ccc(O)cc1)NC(=O)[C@H]1[C@@H](c2ccccc2)CCN1C(=O)[C@@H](CCCNC(=N)N)NC(=O)[C@@H](Cc1c[nH]cn1)NC(C)=O)C(=O)N[C@H](C)C(=O)N[C@H](Cc1c[nH]cn1)C(N)=O [Peptide 7-D, Ac-hrxyiah-NH2] (Ac-[dH][dR][X1][dY][dI][dA][dH]-NH2) | 7 ± 3 | 5.7 ± 1.8 | 6 ± 2 | 4.8 ± 1.5 | two-fold | 0.33 | < 0.4 | high resistance to protease degradation |  |  |  | around 1.5 fold | eight-
